Here are results for 14 compounds from article PMC12056667 (Chemical Science, 2025).

For experiment [1], the target named is T1, Tet(X4) (Escherichia coli, UniProt A0A3T0V9Y5). Briefly: FP competitive displacement of probe 6. It counts as binding. To be noted: IC50app, Tet(X4) (Polarization), 25 nM 6, 40 nM Tet(X4), 5 mM MgCl2, 1 μM FAD, 100 mM Tris pH 7.0, 0.01% Triton X-100. How it is done: A 2× solution containing 80 nM Tet(X4), 2 μM FAD and 10 mM MgCl2 in the assay buffer was dispensed into the first 22 columns of a 384-well black, non-binding microtiter plate (Greiner Bio-One), 12.5 μL per well, using a microplate reagent dispenser. A solution of 2 μM FAD and 10 mM MgCl2 in the assay buffer was dispensed into the remaining columns to serve as a no enzyme control. A 3-fold, 10-point dilution series of substrates and inhibitors was made in DMSO in a V-bottom 96-well plate (Greiner Bio-One) with a highest concentration of 5 mM or 0.5 mM. Into one column was added DMSO with no inhibitor or substrate, to serve as a positive control. Tigecycline was included as a reference on every plate to ensure reproducibility. 0.5 μL of each dilution was transferred in quadruplicate to the 384-well plate containing enzyme solution using a CyBi-Well liquid-handling robot (CyBio). A solution of 50 nM 6 in the assay buffer was then dispensed, with 12.5 μL per well. The plate was briefly centrifuged (1000 rpm), then incubated at ambient temperature for 30 min prior to measuring the FP. Data points were normalised between the positive and negative controls. Normalised % response was plotted as a function of log10([Inhibitor]), and the IC50^app was determined by fitting the data to the equation: Y = Bottom + (top-bottom)/(1 + 10^Log(IC50) − X) × HillSlope in GraphPad Prism 9.4.1, where Y = % response and X = log10([Inhibitor]). Wells with unusual fluorescence intensities were manually identified and removed from the analysis. […]

Experiment [2] has as its target T1, Tet(X4). Briefly: biochemical. How it is done:
We then tested the binding of reported type 1 TDase inhibitors to Tet(X4) (Fig. 3f, ESI Fig. S17 ^†).[33,38,39] […] We also developed a complementary endpoint activity assay where the turnover of tigecycline by Tet(X4) in a 96-well plate was quenched by addition of 1%v/v formic acid and analysed chromatographically. The peak integrals of tigecycline and its hydroxylated degradation product at 254 nm following UPLC analysis were measured to determine turnover (Fig. 5a).
[…] A 3-fold, 10-point dilution series of the substrates and inhibitors was made in DMSO with a top concentration of 10 mM, unless otherwise stated, and transferred to the enzyme solution using a CyBi-Well liquid-handling robot (CyBio), 1 μL per well. On each plate, a column of no enzyme negative controls and no inhibitor (DMSO only) positive controls were included. The plate was incubated at 30 °C for 15 min. A solution containing 100 mM TAPS (pH 8.5), 40 μM tigecycline and 200 μM NADPH was then dispensed, with 49 μL per well. The plate was incubated at 30 °C for 20 min at 600 rpm. 10 μL of 10%v/v formic acid solution was then dispensed into all wells. Samples were analysed using an ACQUITY H-Class PLUS UPLC instrument (Waters) equipped with a pre-equilibrated ACQUITY BEH C18 column ([…], […], Waters) using a gradient of 1–50%v/v acetonitrile with 0.1%v/v formic acid in water with 0.1%v/v formic acid over 1.83 minutes at a flow rate of 0.5 mL min^−1. Instrument control and data processing were performed using MassLynx V4.1 software. The peaks representing tigecycline and 11a-hydroxy-tigecycline were integrated, used to calculate % conversion and then normalised between positive and negative controls. The normalised % response was plotted as a function of log10[Inhibitor], and the IC50 determined as described above.

Experiment [3] relates to E. coli TOP10 containing plasmid pBAD-TOPO-Tet(X4). The experiment in a line: Broth microdilution MIC and checkerboard assay. It counts as cell-based, Escherichia coli. To be noted: for MIC: Escherichia coli; for Combination (antibiotic/inhibitor) MIC: inhibitor: inhibitor in combination with tigecycline; for Combination (antibiotic/inhibitor) MIC: inhibitor / Combination (antibiotic/inhibitor) MIC: antibiotic: lowest FICI; for Combination (antibiotic/inhibitor) MIC: antibiotic: tigecycline in combination with the inhibitor; for FICI / Outcome: with tigecycline. From the text:
Tet(X4) was sub-cloned from the Tet(X4) pET28b-(+) expression vector via TOPO cloning. The insert was amplified using the taq polymerase with the forward primer 5′- […]-3′ and the reverse primer 5′- […]-3’. Following PCR purification (Thermo Fisher Scientific), the A-tailed PCR product was ligated into the pBAD-TOPO vector using a TOPO cloning kit (Invitrogen) according to the manufacturer's protocol. Following amplification in E. coli NEB5α cells (NEBiolabs), the fidelity of the insert was confirmed by Sanger sequencing (Eurofins). For microbiological experiments, E. coli TOP10 cells were used as the recipient strain. Cells were plated on Mueller-Hinton agar (MHA) plates containing ampicillin at 100 μg mL^−1. The introduction of pBAD-TOPO-Tet(X4) was confirmed by colony PCR. Strains were stored in a freezer at −80 °C in cryopreservation beads.
MIC tests and checkerboard assays were performed in U-bottom, 96-well microtiter plates using a modified broth microdilution protocol following CLSI guidelines. Cation-adjusted Mueller-Hinton Broth (CAMHB) was prepared fresh on the day of testing.[74] […] Bacterial colonies were selected from an overnight culture on MHA plates (supplemented with 0.2%w/vL-arabinose for E. coli TOP10 containing pBAD-TOPO-Tet(X4)) and were suspended in 0.9% saline solution to achieve a 0.5 McFarland standard. A 100 μL aliquot of this suspension was then diluted into 9.9 mL of CAMHB to yield approximately 1.5 × 10^6 cfu mL^−1. 50 μL of the suspension was then added to each well of a microtiter plates. Plates were incubated at 37 °C for 18 h. At least 2 replicates were conducted for each combination. E. coli TOP10 + pBAD-TOPO-Tet(X4) cells were grown in the absence and presence of 0.2%w/vL-arabinose. Analysis of the MIC and checkerboard results were carried out by visual inspection of growth, with and without resazurin dye, an oxidation–reduction indicator.[75] As a measure of synergy, fractional inhibitory concentration index (FICI) was calculated as FICA + FICB, where FICA and FICB are the MICcombination/MICalone for each agent, respectively.[76] Results were interpreted as follows: synergistic (<0.5), indifferent (1.0–4.0) or antagonistic (>4.0).[64] In cases where the MIC exceeded or was below the measured range, the borderline value was taken to calculate the FIC index.

The mark [4] stands for this setting: 20 μM tigecycline, 50 nM Tet(X4), 100 μM NADPH, 5 mM MgCl2, 1 μM FAD, 100 mM TAPS pH 8.5, read-out: IC50, UPLC assay.

Structures are written as SMILES. Where two headings read alike, the source gives them in different places. Where only a bound is given, the exact number is not on record here.

Regarding `CC(=O)c1ccc2c(c1)N(CCCN1CCN(CCO)CC1)c1ccccc1S2` [Acetophenazine], the concentration for half-maximal inhibition (IC50) in experiment [1] and in experiment [2] (setting [4]) was > 100 µM in each case.

As to `O=C(NCc1c(F)cc(F)cc1F)c1cn2c(c(O)c1=O)C(=O)N1[C@H]3CC[C@H](C3)O[C@@H]1C2` [Bictegravir], the IC50 (usually the concentration that inhibits the measured activity by half) in experiment [1] is 54.8 ± 10.6 µM; in experiment [2] (setting [4]), 76 ± 14 µM.

With `CN(C)CCCN1c2ccccc2Sc2ccc(Cl)cc21` [Chlorpromazine], the IC50 in experiment [1] was > 100 µM; in experiment [2] (setting [4]) it was 110 ± 19 µM.

Take `O=c1c2ccccc2[se]n1-c1ccccc1` [Ebselen]: the half-inhibitory concentration (IC50) was found to be 40.9 ± 11.4 µM in experiment [1] and 4.7 ± 1.5 µM in experiment [2] (setting [4]).

For `Cn1cc(C2=C(c3cn(C4CCN(Cc5ccccn5)CC4)c4ccccc34)C(=O)NC2=O)c2ccccc21` [Enzastaurin], the concentration for half-maximal inhibition (IC50) in experiment [1] is 27.8 ± 1.5 µM; in experiment [2] (setting [4]), > 100 µM.

On to `COc1ccc2c(c1)N(C[C@H](C)CN(C)C)c1ccccc1S2` [Levomepromazine], for which the IC50 in experiment [1] and in experiment [2] (setting [4]) was > 100 µM throughout.

As to `C=CC(=O)Nc1cccc(Oc2nc(Nc3ccc(N4CCN(C)CC4)cc3)nc3ccsc23)c1` [Olmutinib], the figures for the concentration for half-maximal inhibition (IC50) in experiment [1] and in experiment [2] (setting [4]) were 17.2 ± 3.4 µM and > 100 µM, respectively.

For `CC(CN(C)C)CN1c2ccccc2S(=O)(=O)c2ccccc21` (stereo not shown) [Oxomemazine], the concentration for half-maximal inhibition (IC50) in experiment [1] and in experiment [2] (setting [4]) was > 100 µM throughout.

`c1ccc2c(c1)Nc1ccccc1S2` [Phenothiazine]: the IC50 is > 100 µM in experiment [1] and 128 ± 13 µM in experiment [2] (setting [4]).

On to `CCCCC1C(=O)N(c2ccccc2)N(c2ccccc2)C1=O` [Phenylbutazone], for which the half-maximal inhibitory concentration (IC50) in experiment [1] and in experiment [2] (setting [4]) was > 100 µM in each case.

In the case of `CN(C)CCCN1c2ccccc2Sc2ccccc21` [Promazine], the 50% inhibitory concentration (IC50) in experiment [1] and in experiment [2] (setting [4]) was > 100 µM each time.

`CCN(CC)CCNC(=O)c1c(C)[nH]c(/C=C2\C(=O)Nc3ccc(F)cc32)c1C` [Sunitinib]: the concentration for half-maximal inhibition (IC50) in experiment [1] is 45.6 ± 4 µM; in experiment [2] (IC50, UPLC assay, 20 μM tigecycline, 50 nM Tet(X4), 100 μM NADPH, 5 mM MgCl2, 1 μM FAD, 100 mM TAPS pH 8.5), > 100 µM.

In experiment [1], `COc1cc(C)c2c(Oc3cccc(C(F)(F)F)c3)c(OC)cc(NC(C)CCCN)c2n1` (stereo not shown) [Tafenoquine] displayed an IC50 of 94.9 ± 64.8 µM. The concentration for half-maximal inhibition (IC50) in experiment [2] (setting [4]) was 76 ± 2.4 µM. For the same compound, the minimum inhibitory concentration (MIC) – broadly, the lowest concentration that inhibits growth of the organism – in experiment [3] (read-out: Tet(X) Inhibitor MIC, alone, without L-arabinose induction) came out at 16 µg/mL. Further, in experiment [3] (read-out: Tet(X) inhibitor MIC, alone, induced with 0.2%w/v L-arabinose), the MIC lay in the range of 16 to 64 µg/mL. Further, in experiment [3] (alone, induced with 0.2%w/v L-arabinose), the “Tet(X) inhibitor MIC” value was determined as 16 µg/mL. Moreover, the “reduction of the tigecycline MIC” value in experiment [3] (at high concentrations of inhibitor, 0.2%w/v L-arabinose) is 2–4 fold. For the same compound, in experiment [3] (0.2%w/v L-arabinose), the “Combination (antibiotic/inhibitor) MIC: inhibitor” value was 4 µg/mL, the “Combination (antibiotic/inhibitor) MIC: antibiotic” value was determined as 2 µg/mL, the FICI is listed as 0.8 and the Outcome result is listed as “Indifferent (indifferent (0.5–4.0))”. In addition, in experiment [3] (without L-arabinose), the “Combination (antibiotic/inhibitor) MIC: inhibitor” value was found to be 16 µg/mL, the “Combination (antibiotic/inhibitor) MIC: antibiotic” value turned out to be 0.25 µg/mL, the FICI turned out to be 2 and the Outcome entry is recorded as “indifferent (indifferent (0.5-4.0))”.

Turning to `CN(C)CCCN1c2ccccc2Sc2ccc(C(F)(F)F)cc21` [Triflupromazine], the IC50 was > 100 µM in experiment [1] and 102 ± 29 µM in experiment [2] (IC50, UPLC assay).
